US20140154666A1, “Erythrocyte Preservation Method” (Trustees of Dartmouth College, priority 2012, published 2014)

Key:
erythrocyte concentrate [1] = assay: Hemolysis of erythrocyte concentrate after 42 days of refrigerated storage; type: cell-based; settings: FIG. 1
Source text: (§1) Referring now to FIGS. 1-2, test results of two different erythrocyte concentrates are illustrated. The first erythrocyte concentrate is identified by, number 2032 and the second erythrocyte concentrate is identified by number 2086. Each of the samples was divided into four different containers. […] Also, for each sample, two of the containers included a gas system of 99.9% by volume xenon gas. The graphs indicate which container included or were absent xenon gas and/or DEHP plasticiser. The testing protocol for the containers was as follows:
(§2) For Containers That Are Absent Xe Gas:
(§3) a. Place non-Xe units flat on a rotator for 3.5 hours.
(§4) b. Place non-Xe units in blood bank refrigerator at the same time as the Xe units.
(§5) For Containers That Include Xe Gas:
(§6) a. Place Xe units flat in a pretested hyperatmic chamber.
(§7) b. Evacuate the chamber with vacuum to remove oxygen from the Xe units.
(§8) c. Pressurize the chamber with Xe gas at 4 atm.
(§9) d. Vent the chamber of Xe gas.
(§10) e. Pressurize the chamber with Xe gas at 4 atm.
(§11) f Vent the chamber of Xe gas.
(§12) g. Pressurize the chamber with Xe gas at 4 atm.
(§13) h. Vent the chamber of Xe gas.
(§14) i. Pressurize the chamber with Xe gas at 4 atm.
(§15) j. Place the pressurized Xe unit on an agitator for 3.5 h.
k. Place the pressurized Xe unit in a blood bank refrigerator at the same time as the non-Xe units.
While the Xe units and non-Xe units are in the blood bank refrigerator, the Xe units were periodically checked over a 42 day period to ensure that the pressure in the Xe units exceeded 1 atm. After 42 days, all of the units were removed from the blood bank refrigerator. After the units were removed from the blood bank refrigerator, the following procedures where conducted on the units:
1. Immediately place the pressurized Xe units and non-Xe units on a platelet to and-fro horizontal agitator for 10 minutes.
2. Depressurize all of the units by opening a value on the container.
3. Place all units on a bench top and hold for 3 hours.
4. Following the 3 hour hold period, test the samples for percentage of hemolysis and the ATP content.

erythrocyte concentrate [2] = settings: presence of DEHP plasticizer in the storage container; cited from earlier work
erythrocyte concentrate [3] = assay: ATP content of erythrocyte concentrate after 42 days of refrigerated storage; type: cell-based; settings: FIG. 2, samples 2032 and 2086, 99.9% by volume xenon gas, treated vs not treated
Source text: as §1, §2, §3, §4, §5, §6, §7, §8, §9, §10, §11, §12, §13, §14, §15
k. Place the pressurized Xe unit in a blood bank refrigerator at the same time as the non-Xe units. […]

Compound	hemolysis (erythrocyte concentrate [1]; 42 days, DEHP plasticiser added to a container that included xenon gas)	amounts of hemolysis (erythrocyte concentrate [1]; 42 days, containers that include DEHP plasticiser vs containers without)	number of erythrocytes that lysed during the storage of the erythrocyte concentrate (erythrocyte concentrate [2])	amounts of hemolysis (erythrocyte concentrate [1]; 42 days, xenon gas with no DEHP plasticiser vs container with DEHP plasticiser and no xenon gas)	percent of hemolysis (erythrocyte concentrate [1]; samples 2032 and 2086, 99.9% by volume xenon gas at 4 atm, 42 days in blood bank refrigerator, treated vs not treated with xenon gas)	ATP content in the erythrocyte concentrate (erythrocyte concentrate [3])
CCCCC(CC)COC(=O)c1ccccc1C(=O)OCC(CC)CCCC (stereo not drawn) [DEHP plasticiser, his (2-ethylhexyl) phthalate]	further reduction of hemolysis	Reduced amounts of hemolysis	reduces the number of erythrocytes that lysed	–	–	–
[Xe] [xenon gas, Xenon]	–	–	–	lower amounts of hemolysis	significantly less	higher ATP content
